The results in this text go back to US20140343000A1 (priority 2011, published 2014).

Each structure is given as a SMILES string. Where two headings read alike, the source gives them in different places.

This assay deals with recombinant NL4-3 virus (Renilla luciferase in nef, Gag P373S; NLRluc) in MT-2 cells. The assay is described as follows: whole plant or invertebrate. It counts as cell-based, HIV. Conditions: Renilla. In outline:
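Luciferase signal is the read-out: after 4-5 days of infection in the presence of serially diluted compound, MT-2 cells are lysed with a premix of lysis buffer, luciferase reagent and Stop & Glo substrate, and luminescence is read immediately.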

Setting [1] is: NL43, luciferase activity in cells infected for 4-5 days with NLRluc recombinants, serial dilutions of inhibitor, class symbols (key in Table 1), read-out: EC50.
Setting [2] is: NL43, luciferase activity in cells infected for 4-5 days with NLRluc recombinants, serial dilutions of inhibitor, numeric values, read-out: EC50.

Take `C=C(C)[C@@H]1CC[C@]2(NCCCN(C)C)CC[C@]3(C)[C@H](CC[C@@H]4[C@@]5(C)CC=C(c6ccc(C(=O)O)cc6)C(C)(C)[C@@H]5CC[C@]43C)[C@@H]12` [Example 169, 4-((1R,3aS,5aR,5bR,7aR,11aS,11bR,13aR,13bR)-3a-(3-(dimethylamino)propylamino)-5a,5b,8,8,11a-pentamethyl-1-(prop-1-en-2-yl)-2,3,3a,4,5,5a,5b,6,7,7a,8,11,11a,11b,12,13,13a,13b-octadecahydro-1H-cyclopenta[a]chrysen-9-yl)benzoic acid]: under setting [1], the EC50 (commonly the midpoint of the concentration-response curve) is under 0.1 µM.

Regarding `C=C(C)[C@@H]1CC[C@]2(NCCN3CCC(C(=O)O)CC3)CC[C@]3(C)[C@H](CC[C@@H]4[C@@]5(C)CC=C(c6ccc(C(=O)O)cc6)C(C)(C)[C@@H]5CC[C@]43C)[C@@H]12` [Example 170, 1-(2-(((1R,3aS,5aR,5bR,7aR,11aS,11bR,13aR,13bR)-9-(4-carboxyphenyl)-5a,5b,8,8,11a-pentamethyl-1-(prop-1-en-2-yl)-2,3,3a,4,5,5a,5b,6,7,7a,8,11,11a,11b,12,13,13a,13b-octadecahydro-1H-cyclopenta[a]chrysen-3a-yl)amino)ethyl)piperidine-4-carboxylic acid], the EC50 under setting [1] was under 0.1 µM.

In the case of `C=C(C)[C@@H]1CC[C@]2(NCCN3CCC(C(=O)N(C)C)CC3)CC[C@]3(C)[C@H](CC[C@@H]4[C@@]5(C)CC=C(c6ccc(C(=O)O)cc6)C(C)(C)[C@@H]5CC[C@]43C)[C@@H]12` [Example 171, 4-((1R,3aS,5aR,5bR,7aR,11aS,11bR,13aR,13bR)-3a-(2-(4-(dimethylcarbamoyl)piperidin-1-yl)ethylamino)-5a,5b,8,8,11a-pentamethyl-1-(prop-1-en-2-yl)-2,3,3a,4,5,5a,5b,6,7,7a,8,11,11a,11b,12,13,13a,13b-octadecahydro-1H-cyclopenta[a]chrysen-9-yl)benzoic acid], under “NL43”, the EC50 was under 0.1 µM.

As to `C=C(C)[C@@H]1CC[C@]2(NCCN3CCC(F)(F)CC3)CC[C@]3(C)[C@H](CC[C@@H]4[C@@]5(C)CC=C(c6ccc(C(=O)O)cc6)C(C)(C)[C@@H]5CC[C@]43C)[C@@H]12` [Example 172], under setting [1], the EC50 is under 0.1 µM.

For the compound `C=C(C)[C@@H]1CC[C@]2(N3CC3)CC[C@]3(C)[C@H](CC[C@@H]4[C@@]5(C)CC=C(c6ccc(C(=O)O)cc6)C(C)(C)[C@@H]5CC[C@]43C)[C@@H]12` [Example 173, 4-((1R,3aS,5aR,5bR,7aR,11aS,11bR,13bR)-3a-(aziridin-1-yl)-5a,5b,8,8,11a-pentamethyl-1-(prop-1-en-2-yl)-2,3,3a,4,5,5a,5b,6,7,7a,8,11,11a,11b,12,13,13a,13b-octadecahydro-1H-cyclopenta[a]chrysen-9-yl)benzoic acid], the EC50 (NL43) was under 0.1 µM.

For the compound `C=C(C)[C@@H]1CC[C@]2(NCC3CCCN(C(=O)OC(C)(C)C)C3)CC[C@]3(C)[C@H](CC[C@@H]4[C@@]5(C)CC=C(c6ccc(C(=O)O)cc6)C(C)(C)[C@@H]5CC[C@]43C)[C@@H]12` (stereo partly drawn) [Example 174, 4-((1R,3aS,5aR,5bR,7aR,11aS,11bR,13aR,13bR)-3a-((1-(tert-butoxycarbonyl)piperidin-3-yl)methylamino)-5a,5b,8,8,11a-pentamethyl-1-(prop-1-en-2-yl)-2,3,3a,4,5,5a,5b,6,7,7a,8,11,11a,11b,12,13,13a,13b-octadecahydro-1H-cyclopenta[a]chrysen-9-yl)benzoic acid], the EC50 under setting [2] came out at 0.3 µM.

With `C=C(C)[C@@H]1CC[C@]2(NCC3CCCNC3)CC[C@]3(C)[C@H](CC[C@@H]4[C@@]5(C)CC=C(c6ccc(C(=O)O)cc6)C(C)(C)[C@@H]5CC[C@]43C)[C@@H]12` (stereo partly drawn) [Example 175, 4-((1R,3aS,5aR,5bR,7aR,11aS,11bR,13aR,13bR)-5a,5b,8,8,11a-pentamethyl-3a-(piperidin-3-ylmethylamino)-1-(prop-1-en-2-yl)-2,3,3a,4,5,5a,5b,6,7,7a,8,11,11a,11b,12,13,13a,13b-octadecahydro-1H-cyclopenta[a]chrysen-9-yl)benzoic acid], the EC50 under setting [2] amounted to 0.01 µM.
